# Laboratory results reported in ChEMBL document CHEMBL4765331, “Amides of pyrrole- and thiophene-fused anthraquinone derivatives: A role of the heterocyclic core in antitumor properties” (Eur J Med Chem, 2020).
# pIC50, pKd: −log10 of the molar value. Activity calls are given as the source filed them. The calls are words filed in the database; no cut-off is given here.
# Legend:
# CAPAN-1 = test: Antiproliferative activity against human CAPAN-1 cells assessed as inhibition of cell proliferation measured after 72 hrs by MTT assay; format: functional, cell-based; conditions: CAPAN-1, 72 h
# HCT-116 [1] = test: Antiproliferative activity against human HCT-116 cells assessed as inhibition of cell proliferation measured after 72 hrs by MTT assay; format: functional, cell-based; conditions: HCT-116, 72 h
# NCI-H460 = test: Antiproliferative activity against human NCI-H460 cells assessed as inhibition of cell proliferation measured after 72 hrs by MTT assay; format: functional, cell-based; conditions: NCI-H460, 72 h
# HL-60 = test: Antiproliferative activity against human HL-60 cells assessed as inhibition of cell proliferation measured after 72 hrs by MTT assay; format: functional, cell-based; conditions: HL-60, 72 h
# K562 [2] = test: Antiproliferative activity against human K562 cells assessed as inhibition of cell proliferation measured after 72 hrs by MTT assay; format: functional, cell-based; conditions: K562, 72 h
# [3] = Antiproliferative activity against P-gp-positive/doxorubicin-resistant human K562/4 cells assessed as inhibition of cell proliferation measured after 72 hrs by MTT assay; format: functional; conditions: K562/4, 72 h
# HCT-116 [4] = test: Antiproliferative activity against human HCT-116 cells with inactivated p53 gene assessed as inhibition of cell proliferation measured after 72 hrs by MTT assay; format: functional, cell-based; conditions: HCT-116, 72 h
# TERT-RPE1 = test: Cytotoxicity against human TERT-RPE1 cells assessed as inhibition of cell proliferation measured after 72 hrs by MTT assay; format: cell-based; conditions: RPE-1, 72 h
# [5] = Resistance index, ratio of IC50 for human P-gp-positive/Doxorubicin-resistant K562/4 cells to IC50 for human K562 cells; format: functional
# [6] = Drug uptake in mouse NIH3T3 cells assessed as compound localization in nucleus at 1 uM measured after 15 mins by laser scanning microscope; format: ADME, subcellular; conditions: nih3t3, 0.25 h
# [7] = Selectivity index, ratio of IC50 for human TERT-RPE1 cells to IC50 for human CAPAN-1 cells
# Calf thymus DNA [8] = test: Binding affinity to calf thymus double stranded DNA at 10 uM measured after 5 mins by flourescence spectroscopy method; conditions: Bos taurus
# Calf thymus DNA [9] = test: Binding affinity to calf thymus DNA assessed as DNA intercalation by measuring decrease of negative DNA band at 245 nm at 50 uM by circular dichroism spectral analysis; format: tissue-based; conditions: Bos taurus
# Calf thymus DNA [10] = test: Binding affinity to calf thymus DNA assessed as binding constant by scatchard plot analysis; conditions: Bos taurus
# Calf thymus DNA [11] = test: Binding affinity to calf thymus DNA assessed as dissociation constant by scatchard plot analysis; parameters: species or system Bos taurus
# Calf thymus DNA [12] = test: Binding affinity to calf thymus DNA assessed as stoichiometry ratio of compound-DNA complex formation by scatchard plot analysis; conditions: Bos taurus
# [13] = target: T1, DNA topoisomerase 1 (Homo sapiens) (UniProt P11387); test: Inhibition of human topoisomerase 1-mediated relaxation of supercoiled plasmid using pBR322 plasmid as substrate at 40 uM measured after 30 mins by ethidium bromide dye based agarose gel electrophoresis method
# T1 sequence (whole entry): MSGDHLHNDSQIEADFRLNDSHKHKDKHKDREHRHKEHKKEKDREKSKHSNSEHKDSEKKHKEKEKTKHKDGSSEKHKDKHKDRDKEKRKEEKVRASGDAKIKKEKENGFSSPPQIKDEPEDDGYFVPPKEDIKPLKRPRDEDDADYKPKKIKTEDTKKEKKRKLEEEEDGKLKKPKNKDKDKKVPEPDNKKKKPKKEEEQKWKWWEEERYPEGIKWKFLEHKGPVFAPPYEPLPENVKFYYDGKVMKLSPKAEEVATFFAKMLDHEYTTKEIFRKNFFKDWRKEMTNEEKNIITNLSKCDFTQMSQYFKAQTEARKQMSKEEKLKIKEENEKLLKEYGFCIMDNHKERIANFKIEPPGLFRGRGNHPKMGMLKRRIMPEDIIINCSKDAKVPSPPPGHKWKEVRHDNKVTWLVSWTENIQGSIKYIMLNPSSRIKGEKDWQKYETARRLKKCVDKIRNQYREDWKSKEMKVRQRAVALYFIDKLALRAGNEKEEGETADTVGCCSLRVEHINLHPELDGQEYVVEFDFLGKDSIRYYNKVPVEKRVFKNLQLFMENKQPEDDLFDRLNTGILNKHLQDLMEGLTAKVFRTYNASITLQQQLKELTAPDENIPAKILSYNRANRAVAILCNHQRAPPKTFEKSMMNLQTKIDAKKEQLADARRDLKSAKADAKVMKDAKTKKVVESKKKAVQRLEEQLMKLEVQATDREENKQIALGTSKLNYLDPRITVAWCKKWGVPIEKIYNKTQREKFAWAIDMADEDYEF
# [14] = Drug uptake in mouse NIH3T3 cells assessed as compound localization in mitochondria at 1 uM measured after 15 mins by Mitotracker Green FM dye based laser scanning microscope; format: ADME; conditions: nih3t3, 0.25 h
# [15] = Drug uptake in mouse NIH3T3 cells assessed as compound localization in cytoplasm at 1 uM measured after 15 mins by laser scanning microscope; format: ADME, subcellular; conditions: nih3t3, 0.25 h
# K562 [16] = test: Induction of apoptosis in human K562 cells assessed as viable cells at 3.2 uM measured after 24 hrs by Annexin V-APC/PI staining based flow cytometry assay (reference value: 85.9%); format: functional; conditions: read-out: Activity
# K562 [17] = test: Induction of apoptosis in human K562 cells assessed as viable cells at 3.2 uM measured after 48 hrs by Annexin V-APC/PI staining based flow cytometry assay (reference value: 85.9%); format: functional; conditions: read-out: Activity
# K562 [18] = test: Induction of apoptosis in human K562 cells assessed as early apoptotic cells at 3.2 uM measured after 24 hrs by Annexin V-APC/PI staining based flow cytometry assay (reference value: 3.4%); format: functional
# K562 [19] = test: Induction of apoptosis in human K562 cells assessed as early apoptotic cells at 3.2 uM measured after 48 hrs by Annexin V-APC/PI staining based flow cytometry assay (reference value: 3.4%); format: functional
# K562 [20] = test: Induction of apoptosis in human K562 cells assessed as late apoptotic cells at 3.2 uM measured after 24 hrs by Annexin V-APC/PI staining based flow cytometry assay (reference value: […]); format: functional
# K562 [21] = test: Induction of apoptosis in human K562 cells assessed as late apoptotic cells at 3.2 uM measured after 48 hrs by Annexin V-APC/PI staining based flow cytometry assay (reference value: […]); format: functional
# K562 [22] = test: Induction of apoptosis in human K562 cells assessed as necrotic cells at 3.2 uM measured after 24 hrs by Annexin V-APC/PI staining based flow cytometry assay (reference value: 3.9%); format: functional
# K562 [23] = test: Induction of apoptosis in human K562 cells assessed as necrotic cells at 3.2 uM measured after 48 hrs by Annexin V-APC/PI staining based flow cytometry assay (reference value: 3.9%); format: functional
# K562 [24] = test: Induction of oxidative stress in human K562 cells assessed as increase in intracellular ROS generation at 3.2 uM measured after 40 mins by Deep Red dye based flow cytometry method; format: functional, cell-based
# [25] = Selectivity index, ratio of IC50 for human TERT-RPE1 cells to IC50 for human HCT-116 cells; format: toxicity; conditions: TERT-RPE1 cells and HCT-116 cells, read-out: Ratio IC50
# [26] = Selectivity index, ratio of IC50 for human TERT-RPE1 cells to IC50 for human NCI-H460 cells; format: toxicity; conditions: TERT-RPE1 cells and NCI-H460 cells, read-out: Ratio IC50
# [27] = Selectivity index, ratio of IC50 for human TERT-RPE1 cells to IC50 for human HL-60 cells; format: toxicity; conditions: TERT-RPE1 cells and HL-60 cells, read-out: Ratio IC50
# [28] = Selectivity index, ratio of IC50 for human TERT-RPE1 cells to IC50 for human K562 cells; format: toxicity; conditions: TERT-RPE1 cells and K562 cells, read-out: Ratio IC50
# [29] = Drug uptake in P-gp-positive/doxorubicin-resistant human K562/4 cells; format: ADME
# [30] = Drug uptake in human K562i/S9 cells harboring exogenously expressed MDR1/Pgp; format: ADME, cell-based
# K562 [31] = test: Induction of cell cycle arrest in human K562 cells assessed as accumulation at G2/M phase at 2XIC50 measured after 24 hrs by propidium iodide/RNase staining based flow cytometry; format: functional
# K562 [32] = test: Induction of cell cycle arrest in human K562 cells assessed as accumulation at G2/M phase at 2XIC50 measured after 48 hrs by propidium iodide/RNase staining based flow cytometry; format: functional
# K562 [33] = test: Induction of cell cycle arrest in human K562 cells assessed as accumulation at subG1 phase at 2XIC50 measured after 24 hrs by propidium iodide/RNase staining based flow cytometry; format: functional
compound,measurement,setting,value
CCn1c(C)c(C(=O)N2CC[C@H](N)C2)c2c(O)c3c(c(O)c21)C(=O)c1ccccc1C3=O,pIC50,CAPAN-1,5.92
same,pIC50,HCT-116 [1],5.64
same,pIC50,NCI-H460,5.68
same,pIC50,HL-60,5.96
same,pIC50,K562 [2],5.77
same,pIC50,[3],4.55
same,pIC50,HCT-116 [4],5.60
same,pIC50,TERT-RPE1,4.87
same,Ratio IC50,[5],16.5
COc1cccc2c1C(=O)c1c(O)c3c(c(O)c1C2=O)C[C@@](O)(C(=O)CO)C[C@@H]3O[C@H]1C[C@H](N)[C@H](O)[C@H](C)O1 [DOXORUBICIN],pIC50,CAPAN-1,5.77
same,pIC50,NCI-H460,6.40
same,pIC50,[3],5.26
same,pIC50,TERT-RPE1,6.00
same,Drug uptake,[6],Active
N[C@H]1CCN(C(=O)c2csc3c(O)c4c(c(O)c23)C(=O)c2ccccc2C4=O)C1,pIC50,CAPAN-1,5.68
same,pIC50,HCT-116 [1],5.74
same,pIC50,NCI-H460,5.68
same,pIC50,HL-60,5.26
same,pIC50,K562 [2],5.80
same,pIC50,[3],5.37
same,pIC50,HCT-116 [4],5.66
same,pIC50,TERT-RPE1,4.89
same,Ratio IC50,[7],2
same,Ratio IC50,[5],2.7
same,Activity,Calf thymus DNA [8],Active
same,Activity,Calf thymus DNA [9],Active
same,Kb,Calf thymus DNA [10],2 10^5/M
same,pKd,Calf thymus DNA [11],5.30
same,Ratio,Calf thymus DNA [12],2
same,inhibition,[13],Active
same,Drug uptake,[6],Active
same,Drug uptake,[14],Active
same,Drug uptake,[15],Active
same,viability at 3.2 µM,K562 [16],71.2%
same,viability at 3.2 µM,K562 [17],54.1%
same,Activity,K562 [18],0.8%
same,Activity,K562 [19],0.9%
same,Activity,K562 [20],6.7%
same,Activity,K562 [21],9.9%
same,Activity,K562 [22],21.3%
same,Activity,K562 [23],35.1%
same,Activity,K562 [24],Active
same,selectivity ratio,[25],2
same,selectivity ratio,[26],2
same,selectivity ratio,[27],2
same,selectivity ratio,[28],2
same,Drug uptake,[29],Active
same,Drug uptake,[30],Active
same,Activity,K562 [31],Active
same,Activity,K562 [32],Active
same,Activity,K562 [33],Active
N[C@@H]1CN(C(=O)c2csc3c(O)c4c(c(O)c23)C(=O)c2ccccc2C4=O)C[C@H]1N,pIC50,CAPAN-1,5.59
same,pIC50,HCT-116 [1],5.40
same,pIC50,NCI-H460,4.90
same,pIC50,HL-60,5.33
same,pIC50,K562 [2],5.89
same,pIC50,[3],4.84
same,pIC50,HCT-116 [4],5.42
same,pIC50,TERT-RPE1,5.04
same,Ratio IC50,[5],11.2
